Experimental data published in patent US11384075B2, “Quinolinone compounds” (Janssen Pharmaceutica NV, priority 2017, dated 2022).

Columns and labels:
[1] = molecular target: T1, NIH/3T3 cells overexpressing FGFR3 V555M-TACC3 fusion protein (Homo sapiens, UniProt P22607, V555M, cells depend on it); test: NIH/3T3 FGFR3 V555M-TACC3 cell proliferation assay; type: cell-based; details: 72-hr incubation, CellTiter Glo, starting with 10 μM; read-out: NIH/3T3 FGFR3 V555M-TACC3 CTG (IC50)
T1 construct: NIH/3T3 FGFR3 V555M-TACC3 CTG (IC50); other: 72-hr incubation, CellTiter Glo, starting with 10 μM; fused on or other part: Q9Y6A5 (Transforming acidic coiled-coil-containing protein 3)
T1 sequence (P22607 whole entry V555M, the tested form may be a part): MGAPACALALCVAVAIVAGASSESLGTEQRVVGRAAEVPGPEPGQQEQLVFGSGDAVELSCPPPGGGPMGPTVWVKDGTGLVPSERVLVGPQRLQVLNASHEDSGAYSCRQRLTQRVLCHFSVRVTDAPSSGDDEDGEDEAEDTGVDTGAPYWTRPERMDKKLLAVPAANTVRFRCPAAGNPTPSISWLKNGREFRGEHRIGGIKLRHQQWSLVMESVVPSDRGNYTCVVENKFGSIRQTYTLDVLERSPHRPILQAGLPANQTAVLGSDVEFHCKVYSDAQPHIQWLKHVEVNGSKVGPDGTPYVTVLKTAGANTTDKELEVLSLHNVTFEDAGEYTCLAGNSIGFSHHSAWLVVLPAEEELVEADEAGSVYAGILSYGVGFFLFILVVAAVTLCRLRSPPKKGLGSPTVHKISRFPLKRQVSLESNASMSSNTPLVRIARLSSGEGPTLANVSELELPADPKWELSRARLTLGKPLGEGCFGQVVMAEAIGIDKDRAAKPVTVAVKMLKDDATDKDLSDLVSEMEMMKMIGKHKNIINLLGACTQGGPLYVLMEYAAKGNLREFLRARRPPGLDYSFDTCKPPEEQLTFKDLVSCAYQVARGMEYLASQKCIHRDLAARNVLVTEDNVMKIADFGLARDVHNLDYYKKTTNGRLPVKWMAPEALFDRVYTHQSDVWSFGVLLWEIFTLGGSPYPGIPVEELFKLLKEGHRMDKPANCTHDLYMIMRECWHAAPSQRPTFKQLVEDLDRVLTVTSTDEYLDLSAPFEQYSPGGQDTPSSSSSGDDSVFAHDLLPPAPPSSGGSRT
Procedure: NIH/3T3 FGFR3 V555M-TACC3 Cell Proliferation Assay
(§1) In day 1, 90 μL of cell suspension (NIH/3T3 cells overexpressing FGFR3 V555M-TACC3 fusion protein) (total 30,000 cells per well in growth medium (DMEM containing 1% Glutamax, 10% FBS and 1% Pen/Strep)) was seeded in a 96-well plate and then incubated overnight at 37° C. and 5% CO2. In day 2, 10 μL of growth medium containing 10-fold stock solution of testing compound was added into cell cultures (9 dose points with 4× serial dilution, starting with 10 μM, 0.1% DMSO final). After 72-hr incubation at 37° C. and 5% CO2, in day 5 a volume of 50 μL CellTiter Glo (CTG) reagent was added into cell-containing 96-well plate and the plate was incubated at room temperature for 10 minutes before RLUs (relative light unit) were measured on a microplate reader with luminescence detection module. The RLU value was normalized to survival % and concentration-response curve was plotted using Prism to calculate IC50 (M), pIC50 (−log IC50) and HillSlope value.

[2] = test system: NIH/3T3 cells transfected with the same control vector; test: NIH/3T3 mock cell proliferation assay (counter assay, general toxicity); type: cell-based; details: Mus musculus, NIH3T3, 72 h, 72-hr incubation, CellTiter Glo, starting with 30 μM; counter assay for general toxicity; read-out: NIH/3T3 MOCK CTG (IC50)
Procedure: NIH/3T3 Mock Cell Proliferation Assay
as §1, with “cells transfected with the same control vector as in the above two proliferation assays)” for “cells overexpressing FGFR3 V555M-TACC3 fusion protein)”, “with 3×” for “with 4×”, “with 30” for “with 10”, “μM, 0.3%” for “μM, 0.1%”

[3] = molecular target: T2, human FGFR3 wild type enzyme (cytoplasmic domain) (Homo sapiens, UniProt P22607); test: FGFR3 wild type mobility shift assay (enzymatic assay); type: biochemical; details: 75 μM ATP, 50 minutes at 30° C., Caliper EZ reader II
T2 construct: human FGFR3 wild type enzyme (cytoplasmic domain, from Carna Biosciences); purchased Carna Biosciences
T2 sequence (P22607 397-806 limits assumed): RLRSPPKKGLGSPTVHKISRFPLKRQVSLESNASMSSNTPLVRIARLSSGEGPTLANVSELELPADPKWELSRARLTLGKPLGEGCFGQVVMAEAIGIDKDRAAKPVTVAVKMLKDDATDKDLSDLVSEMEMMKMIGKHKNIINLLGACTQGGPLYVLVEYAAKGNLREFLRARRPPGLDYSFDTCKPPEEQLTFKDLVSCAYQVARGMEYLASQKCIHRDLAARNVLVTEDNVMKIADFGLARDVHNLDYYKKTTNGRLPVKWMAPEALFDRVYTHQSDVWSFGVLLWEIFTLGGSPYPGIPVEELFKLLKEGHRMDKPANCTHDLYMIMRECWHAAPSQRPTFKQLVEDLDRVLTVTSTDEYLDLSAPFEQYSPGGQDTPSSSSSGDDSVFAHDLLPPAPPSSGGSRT
Procedure: FGFR3 Wild Type Mobility Shift Assay (Enzymatic Assay)
(§2) In a final reaction volume of 25 μL, 0.04 ng/μL human FGFR3 wild type enzyme (cytoplasmic domain, from Carna Biosciences) was incubated with 75 μM ATP, 1 μM FL-peptide 30 substrate and 250 nL of testing compound (1% DMSO final) in assay buffer (100 mM HEPES pH 7.4, 10 mM MgCl2, 0.003% Brij35, 1 mM DTT). After incubation for 50 minutes at 30° C. the reaction was stopped with 10 μL of 0.5M EDTA pH 8.0, and then 25 μL of reaction mixture was transferred to reading plate and measured on Caliper EZ reader II. The substrate-product conversion rate was used as raw data for normalization and concentration-response curve (10 dose points with 4× serial dilution, starting with 10 μM) was plotted using Prism to calculate IC50 (M), pIC50 (−log IC50) and HillSlope value.

[4] = molecular target: T3, NIH/3T3 cells overexpressing FGFR3 WT-TACC3 fusion protein (Homo sapiens, UniProt P22607); test: NIH/3T3 FGFR3 WT-TACC3 cell proliferation assay; type: cell-based; details: 72-hr incubation, CellTiter Glo, starting with 10 μM; read-out: NIH/3T3 FGFR3 WT-TACC3 CTG (IC50)
T3 construct: NIH/3T3 FGFR3 WT-TACC3 CTG (IC50); other: 72-hr incubation, CellTiter Glo, starting with 10 μM; fused on or other part: Q9Y6A5 (Transforming acidic coiled-coil-containing protein 3)
T3 sequence (P22607 whole entry, change not shown, the tested form may be a part): as the sequence (P22607 whole entry V555M, the tested form may be a part) above, with M555V counted along it
Procedure: NIH/3T3 FGFR3 WT-TACC3 Cell Proliferation Assay
as §1, with “WT-TACC3” for “V555M-TACC3”

[5] = molecular target: T4, human FGFR3 V555M enzyme (cytoplasmic domain carrying V555M mutation) (Homo sapiens, UniProt P22607, V555M); test: FGFR3 V555M mobility shift assay (enzymatic assay); type: biochemical; details: 30 μM ATP, 45 minutes at 30° C., Caliper EZ reader II
T4 construct: human FGFR3 V555M enzyme (cytoplasmic domain carrying V555M mutation, from Carna Biosciences); purchased Carna Biosciences
T4 sequence (P22607 397-806 V555M limits assumed): as the sequence (P22607 397-806 limits assumed) above, with V159M counted along it
Procedure: FGFR3 V555M Mobility Shift Assay (Enzymatic Assay)
as §2, with “FGFR3 V555M” for “FGFR3 wild type”, “(cytoplasmic domain carrying V555M mutation,” for “(cytoplasmic domain,”, “with 30” for “with 75”, “for 45” for “for 50”

## CC(Nc1c(-c2nc3cc(C(F)(F)F)c(N4CCN(C)CC4)cc3[nH]2)c(=O)[nH]c2ccccc12)c1ncccn1 (single isomer, unassigned) [Compound 25a, (S*)-3-(6-(4-methylpiperazin-1-yl)-5-(trifluoromethyl)-1H-benzo[d]imidazol-2-yl)-4-((1-(pyrimidin-2-yl)ethyl)amino)quinolin-2(1H)-one]
[1]
  GI50: 4.82 nM
[2]
  IC50: 2260 nM
[3]
  IC50: 1.22 nM
[4]
  GI50: 5.16 nM
[5]
  IC50: 1.03 nM

## CC(Nc1c(-c2nc3ccc(N4CCO[C@@H](C)C4)cc3[nH]2)c(=O)[nH]c2ccccc12)c1ncccn1 (single isomer, unassigned) [Compound 26a, 3-(6-((S)-2-methylmorpholino)-1H-benzo[d]imidazol-2-yl)-4-(((S*)-1-(pyrimidin-2-yl)-ethyl)amino)quinolin-2(1H)-one]
[1]
  GI50: 4.3 nM
[2]
  IC50: 2580 nM
[3]
  IC50: 0.317 nM
[4]
  GI50: 2.22 nM
[5]
  IC50: 0.178 nM

## CC(Nc1c(-c2nc3cc(F)c(N4CCOCC4)cc3[nH]2)c(=O)[nH]c2ccccc12)c1ncccn1 (single isomer, unassigned) [Compound 27a, (S*)-3-(5-fluoro-6-morpholino-1H-benzo[d]imidazol-2-yl)-4-((1-(pyrimidin-2-yl)-ethyl)amino)quinolin-2(1H)-one]
[1]
  GI50: 5.8 nM
[2]
  IC50: 3880 nM
[3]
  IC50: 0.445 nM
[4]
  GI50: 6.93 nM
[5]
  IC50: 0.255 nM

## C[C@H](Nc1c(-c2nc3ccc(N4CCCCC4)cc3[nH]2)c(=O)[nH]c2ccccc12)c1ncccn1 (single isomer, unassigned) [Compound 28a, (S*)-3-(6-(piperidin-1l-yl)-1H-benzo[d]imidazol-2-yl)-4-((1-(pyrimidin-2-yl)ethyl)-amino)quinolin-2(1H)-one]
[1]
  GI50: 8.35 nM
[2]
  IC50: 7220 nM
[3]
  IC50: 0.552 nM
[4]
  GI50: 5.49 nM
[5]
  IC50: 0.302 nM

## CC(Nc1c(-c2nc3ccc(C4CCOCC4)cc3[nH]2)c(=O)[nH]c2ccccc12)c1ncccn1 (single isomer, unassigned) [Compound 29a, (S*)-4-((1-(pyrimidin-2-yl)ethyl)amino)-3-(6-(tetrahydro-2H-pyran-4-yl)-1H-benzo[d]-imidazol-2-yl)quinolin-2(1H)-one]
[1]
  GI50: 10.8 nM
[2]
  IC50: 4690 nM
[3]
  IC50: 0.242 nM
[4]
  GI50: 8.46 nM
[5]
  IC50: 0.15 nM

## CCCC(Nc1c(-c2nc3ccc(N4CCOCC4)cc3[nH]2)c(=O)[nH]c2ccccc12)c1ncccn1 (single isomer, unassigned) [Compound 31a, (S*)-3-(6-morpholino-1H-benzo[d]imidazol-2-yl)-4-((1-(pyrimidin-2-yl)butyl)amino)quinolin-2(1H)-one]
[1]
  GI50: 14.3 nM
[2]
  IC50: 2920 nM
[3]
  IC50: 0.843 nM
[4]
  GI50: 25.7 nM
[5]
  IC50: 0.181 nM

## Cc1ccnc(C(C)Nc2c(-c3nc4ccc(N5CCOCC5)cc4[nH]3)c(=O)[nH]c3ccccc23)n1 (single isomer, unassigned) [Compound 34a, (S*)-4-((1-(4-methylpyrimidin-2-yl)ethyl)amino)-3-(6-morpholino-1H-benzo[d]imidazol-2-yl)quinolin-2(1H)-one]
[1]
  GI50: 70.4 nM
[2]
  IC50: 1320 nM
[3]
  IC50: 9 nM
[4]
  GI50: 43.1 nM
[5]
  IC50: 1.59 nM

## CC(Nc1c(-c2nc3ccc(N4CCOCC4)cc3[nH]2)c(=O)[nH]c2ccccc12)c1cnccn1 (single isomer, unassigned) [Compound 35b, (S*)-3-(6-morpholino-1H-benzo[d]imidazol-2-yl)-4-((1-(pyrazin-2-yl)ethyl)amino)-quinolin-2(1H)-one]
[1]
  GI50: 197 nM
[2]
  IC50: 1680 nM
[3]
  IC50: 11.1 nM
[4]
  GI50: 127 nM
[5]
  IC50: 2.86 nM

## CC(Nc1c(-c2nc3ccc(N4CCOCC4)cc3[nH]2)c(=O)[nH]c2ccccc12)c1ccn(C(C)C)n1 (single isomer, unassigned) [Compound 36b, (S*)-4-((1-(1-isopropyl-1H-pyrazol-3-yl)ethyl)amino)-3-(6-morpholino-1H-benzo[d]-imidazol-2-yl)quinolin-2(1H)-one]
[1]
  GI50: 170 nM
[2]
  IC50: 1520 nM
[3]
  IC50: 7.32 nM
[4]
  GI50: 315 nM
[5]
  IC50: 2.35 nM

## CC(Nc1c(-c2nc3ccc(N4C[C@@H](C)O[C@H](C)C4)cc3[nH]2)c(=O)[nH]c2ccccc12)c1ncccn1 (single isomer, unassigned) [Compound 37a, 3-(6-((2R,6R)-2,6-dimethylmorpholino)-1H-benzo[d]imidazol-2-yl)-4-(((S*)-1-(pyrimidin-2-yl)ethyl)amino)quinolin-2(1H)-one]
[1]
  GI50: 4.18 nM
[2]
  IC50: 898 nM
[3]
  IC50: 0.478 nM
[4]
  GI50: 11.7 nM
[5]
  IC50: 0.326 nM

## CC(Nc1c(-c2nc3ccc(N4C[C@H](C)O[C@@H](C)C4)cc3[nH]2)c(=O)[nH]c2ccccc12)c1ncccn1 (single isomer, unassigned) [Compound 39a, 3-(6-((2S,6S)-2,6-dimethylmorpholino)-1H-benzo[d]imidazol-2-yl)-4-(((S*)-1-(pyrimidin-2-yl)ethyl)amino)quinolin-2(1H)-one]
[1]
  GI50: 6.47 nM
[2]
  IC50: 1600 nM
[3]
  IC50: 0.174 nM
[4]
  GI50: 6.58 nM
[5]
  IC50: 0.136 nM

## C[C@@H]1CN(c2ccc3nc(-c4c(N[C@@H](C)c5ncccn5)c5ccccc5[nH]c4=O)[nH]c3c2)CCO1 (single isomer, unassigned) [Compound 40a]
[1]
  GI50: 1.85 nM
[2]
  IC50: 2480 nM
[3]
  IC50: 0.313 nM
[4]
  GI50: 3.15 nM
[5]
  IC50: 0.168 nM
